Where two headings read alike, the source gives them in different places.
Legend:
human 5-HT4 receptor = target: T1, human 5-HT4 receptor (Homo sapiens, UniProt Q13639); assay: Binding affinity of compounds for 5-HT4 receptor (radioligand displacement, membrane lysates of COS-7 cells); details: inhibition of specific binding of 0.595 nM [H3]-AGR113808; COS-7 cell membrane lysates expressing human 5-HT4 receptor
T1 construct: expressed in transfected cells; host or cells: COS-7
Method: For this purpose, COS-7 cells expressing the human 5-HT4 receptor were constructed and lysed to obtain cell membrane lysates which were then used in binding assay experiments. For binding assay, the membrane lysates were mixed and incubated with different concentrations of test materials and [H3]-AGR113808. […] After incubation was completed, the reaction products were collected in a GF/B glass fiber filter using a Packard cell harvester, and the bound radioactivity was then determined using a liquid cell scintillation counter (Packard TopCount NXT™, Perkin Elmer). Specific binding of the radioligand to the 5-HT4 receptor was calculated by subtracting the non-specific binding of the radioligand from the total radioligand binding. IC50 was calculated from % inhibition of specific binding of the radioligand to the 5-HT4 receptor, with respect to varying concentrations of the test materials.

male ICR mice = tested on: male ICR mice
Method: In order to examine acute toxicity of compounds according to the present invention, the following experiment was carried out.
Over the entire experimental period of 2 weeks, the minimum lethal dose (MLD, mg/kg) of the compound was investigated by the observation of the mortality, body weight and clinical symptoms of animals.

hERG potassium channel = target: T2, hERG potassium channel (Homo sapiens, UniProt Q12809); assay: Binding affinity of compounds for hERG receptor ([H3]-Astemizole displacement, HEK-293 membrane lysates); details: % inhibition of specific binding of 1.5 nM [H3]-Astemizole at 10 μM test material
T2 construct: host or cells: HEK-293
T2 sequence (Q12809 whole entry): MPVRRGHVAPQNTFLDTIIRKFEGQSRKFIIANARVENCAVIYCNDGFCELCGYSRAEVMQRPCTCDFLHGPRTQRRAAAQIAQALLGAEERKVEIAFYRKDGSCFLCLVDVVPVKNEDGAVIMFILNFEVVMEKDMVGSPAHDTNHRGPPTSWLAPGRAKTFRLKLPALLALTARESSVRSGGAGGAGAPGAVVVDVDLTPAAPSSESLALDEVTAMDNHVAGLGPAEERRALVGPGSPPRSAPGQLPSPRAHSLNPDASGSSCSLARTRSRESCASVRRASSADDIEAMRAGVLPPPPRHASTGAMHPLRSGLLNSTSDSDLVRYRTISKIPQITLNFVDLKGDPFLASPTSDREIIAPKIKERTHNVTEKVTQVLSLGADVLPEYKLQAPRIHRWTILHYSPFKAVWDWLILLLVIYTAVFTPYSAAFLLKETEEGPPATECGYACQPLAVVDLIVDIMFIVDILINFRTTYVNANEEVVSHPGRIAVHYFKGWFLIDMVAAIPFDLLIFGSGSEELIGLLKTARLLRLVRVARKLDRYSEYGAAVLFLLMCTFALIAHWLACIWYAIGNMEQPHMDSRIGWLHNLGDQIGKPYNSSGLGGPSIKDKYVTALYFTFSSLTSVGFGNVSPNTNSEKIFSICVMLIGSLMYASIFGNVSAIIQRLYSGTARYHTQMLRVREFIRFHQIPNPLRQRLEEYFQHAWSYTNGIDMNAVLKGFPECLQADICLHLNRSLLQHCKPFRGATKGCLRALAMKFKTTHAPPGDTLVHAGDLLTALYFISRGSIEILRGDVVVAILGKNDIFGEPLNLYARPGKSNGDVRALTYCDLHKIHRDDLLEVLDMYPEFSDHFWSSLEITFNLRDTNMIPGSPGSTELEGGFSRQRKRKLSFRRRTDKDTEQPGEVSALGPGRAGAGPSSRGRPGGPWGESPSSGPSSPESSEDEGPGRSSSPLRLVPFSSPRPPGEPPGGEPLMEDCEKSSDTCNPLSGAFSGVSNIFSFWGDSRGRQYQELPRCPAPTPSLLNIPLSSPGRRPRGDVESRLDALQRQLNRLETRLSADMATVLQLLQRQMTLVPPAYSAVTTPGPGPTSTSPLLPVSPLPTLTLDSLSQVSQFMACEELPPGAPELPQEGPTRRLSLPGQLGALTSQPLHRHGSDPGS
Method: Membrane lysates were obtained from mammalian HEK-293 cells expressing the hERG potassium channel and used in binding assay experiments. […] After incubation was completed, the radioactivity bound to the hERG K+ channel was counted. The affinity of each test material for the hERG K+ channel was calculated from % inhibition of specific binding of the radioligand to the hERG K+ channel, resulting from the action of the test material.

T1 sequence (Q13639 whole entry): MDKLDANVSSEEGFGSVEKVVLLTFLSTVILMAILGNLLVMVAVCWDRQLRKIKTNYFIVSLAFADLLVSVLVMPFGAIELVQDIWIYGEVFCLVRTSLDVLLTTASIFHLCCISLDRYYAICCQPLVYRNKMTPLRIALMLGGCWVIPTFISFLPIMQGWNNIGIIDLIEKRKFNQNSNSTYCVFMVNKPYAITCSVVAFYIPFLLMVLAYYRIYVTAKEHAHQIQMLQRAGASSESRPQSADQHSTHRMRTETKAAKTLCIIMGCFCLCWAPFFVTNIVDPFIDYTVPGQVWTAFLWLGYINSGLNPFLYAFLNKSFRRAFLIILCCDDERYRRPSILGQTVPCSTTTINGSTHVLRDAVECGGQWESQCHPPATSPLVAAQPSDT

Compound: COc1cc(N)c(Cl)cc1C(=O)N[C@H]1CCN(CCC(=O)Nc2cccc3ncccc23)C[C@H]1OC (relative stereo) [Compound 56, cis-4-amino-5-chloro-N-[1-(3-oxo-3-(quinolin-5-yl-amino)propyl)-3-methoxypiperidin-4-yl]-2-methoxybenzamide]
- IC50 (human 5-HT4 receptor): 11 nM
- Minimum lethal dose (MLD, mg/kg) (male ICR mice; male, ICR, mouse, in vivo, po, 2 weeks): >1000 mg/kg
- hERG binding affinity (% at 10 μM) (hERG potassium channel): 23%

Compound: CCOC(=O)N1CCC(CN2CC[C@@H](NC(=O)c3cc(Cl)c(N)cc3OC)[C@@H](OC)C2)CC1 [Compound 2, ethyl 4-[((3S,4R)-4-(4-amino-5-chloro-2-methoxybenzamido)-3-methoxypiperidin-1-yl)methyl]piperidine-1-carboxylate]
- IC50 (human 5-HT4 receptor): 83 nM
- Minimum lethal dose (MLD, mg/kg) (male ICR mice; oral, single dose of 1 g/10 mL/kg in 1% hydroxypropylmethylcellulose, 5-week old male ICR mice, observed 2 weeks): >1000 mg/kg

Compound: COc1cc(N)c(Cl)cc1C(=O)N[C@@H]1CCN(CCc2noc(C)n2)C[C@@H]1OC [Compound 55, (3S,4R)-4-amino-5-chloro-N-[1-(2-(5-methyl-1,2,4-oxadiazol-3-yl)ethyl)-3-methoxypiperidin-4-yl]-2-methoxybenzamide]
- hERG binding affinity (% at 10 μM) (hERG potassium channel): 31%

— US20100105727A1, “NOVEL BENZAMIDE DERIVATIVES AND PROCESS FOR THE PREPARTION THEREOF” (DONG-A-PHARM. CO., LTD., priority 2007, published 2010)
